This passage reports GI50 results from patent US8940739B2, “Compound of a reverse-turn mimetic and a production method and use therefor” (JW Pharmaceutical Corporation, priority 2010, dated 2015).

One may read the GI50 as the concentration at which growth is held to half of that of the control.

For the experiment, the system named is MV-4-11 (human, Acute Myeloid Leukemia cell line) cells. In words: Cell growth inhibition assay, GI50 of MV-4-11. The experiment is classed as cell-based. Particulars: MV-4-11 cells. How it is done:
The anti-proliferative activity (cell growth inhibition assay) of the compounds according to the present invention against AML (Acute Myeloid Leukemia) cancer cells was measured. […] The lower the GI50 value, the higher the anti-proliferative activity.
A cell growth Inhibition assay was performed to investigate the rate of inhibition of cell proliferation by the compounds of the present invention. MV-4-11 (human, Acute Myeloid Leukemia cell line) cells were cultured in Iscove's modified Dulbecco's medium (IMDM) including 10% fetal bovine serum (FBS), 1× penicillin/streptomycin (10,000 units/ml Penicillin, […] Streptomycin in 0.85% NaCl). MV-4-11 cells were harvested with the IMDM and 5×10^4 cells/well were transferred to each well of 96-well culture plates (Nunc, #167008).
The compounds of Examples 1 to 5 were exposed to serial dilution and duplicated for each concentration. For the serial dilution, the compounds of the present invention were repeatedly diluted with the same volume of media onto 96-well assay block (costar, #3956). After the dilution, each compound was added to each well.
Also, the background absorbance was measured during the treatment with the test compounds by replacing the test compound with IMDM in the negative control plate. The plates were incubated for three days (72 hours) at 37 in the humidified incubator containing 5% CO2. On the last day, 20 µl of a CellTiter 96 Aqueous One Solution (Promega #G3581) was added to the culture in each well and the plates were incubated for a few hours at 37 in the humidified incubator containing 5% CO2. After the incubation, the absorbance of each cell was measured at 490 nm using an EnVision (Perkinelmer, USA).
The GI50 values were calculated using a Prism 3.0 program.

The mark [1] stands for this setting: 72 hours, read-out: MV4-11 GI50.

Like-named read-outs stand apart in the source and are kept apart here.

For `C=CCN1CC(=O)N2[C@@H](Cc3ccc(O)cc3)C(=O)N(Cc3cccc4c(-c5ccc(C(=O)N6CCN(C)CC6)cc5)cn(C)c34)C[C@@H]2N1C(=O)NCc1ccccc1` [Compound D-3], halving of growth (Homo sapiens, MV4-11, 72 h) (GI50) required 0.1 nM.
The same measure, in the same setting: the value for `C=CCN1CC(=O)N2[C@@H](Cc3ccc(O)cc3)C(=O)N(Cc3cccc4c(C(=O)N5CCN(Cc6ccncc6)CC5)cn(C)c34)C[C@@H]2N1C(=O)NCc1ccccc1` [Compound E-30] was 14.4 nM; that for `C=CCN1CC(=O)N2[C@@H](Cc3ccc(O)cc3)C(=O)N(Cc3cccc4c(-c5ccc(NC(=O)N6CCC(N(C)C)CC6)cc5)cn(C)c34)C[C@@H]2N1C(=O)NCc1ccccc1` [Compound D-65] was 1.3 nM; that for `C=CCN1CC(=O)N2[C@@H](Cc3ccc(O)cc3)C(=O)N(Cc3cccc4c(-c5ccc(NC(=O)N6CC(N7CCOCC7)C6)cc5)cn(C)c34)C[C@@H]2N1C(=O)NCc1ccccc1` [Compound D-66] was 1.3 nM.
Still for that read-out and setting: the value for `C=CCN1CC(=O)N2[C@@H](Cc3ccc(O)cc3)C(=O)N(Cc3cccc4c(-c5ccc(C(=O)N(C)OC)cc5)cn(C)c34)C[C@@H]2N1C(=O)NCc1ccccc1` [Compound D-47] was 1.3 nM; that for `C=CCN1CC(=O)N2[C@@H](Cc3ccc(O)cc3)C(=O)N(Cc3cccc4c(-c5ccc(C(=O)N6CCCCC6)cc5)cn(C)c34)C[C@@H]2N1C(=O)NCc1ccccc1` [Compound D-4] was 1.4 nM.
Same read-out and setting: the value for `C=CCN1CC(=O)N2[C@@H](Cc3ccc(O)cc3)C(=O)N(Cc3cccc4c(-c5ccc(NC(=O)N6CCC(N7CCOCC7)CC6)cc5)cn(C)c34)C[C@@H]2N1C(=O)NCc1ccccc1` [Compound D-64] was 1.2 nM; that for `C=CCN1CC(=O)N2[C@@H](Cc3ccc(O)cc3)C(=O)N(Cc3cccc4c(-c5ccc(C(C)=O)s5)cn(C)c34)C[C@@H]2N1C(=O)NCc1ccccc1` [Compound H-8] was 5.7 nM.
As to `C=CCN1CC(=O)N2[C@@H](Cc3ccc(O)cc3)C(=O)N(Cc3cccc4c(C(=O)N5CCN(Cc6ccc(OC)cc6)CC5)cn(C)c34)C[C@@H]2N1C(=O)NCc1ccccc1` [Compound E-36], halving of growth (Homo sapiens, MV4-11, 72 h) (GI50) required 8.4 nM.
The same measure, in the same setting: under `C=CCN1CC(=O)N2[C@@H](Cc3ccc(O)cc3)C(=O)N(Cc3cccc4c(-c5ccc(C(=O)N(C)CCN(C)C)cc5)cn(C)c34)C[C@@H]2N1C(=O)NCc1ccccc1` [Compound D-40] stands 1.2 nM; under `C=CCN1CC(=O)N2[C@@H](Cc3ccc(O)cc3)C(=O)N(Cc3cccc4c(C(=O)N(C)Cc5ccccn5)cn(C)c34)C[C@@H]2N1C(=O)NCc1ccccc1` [Compound F-43], 17.8 nM.
Still for that read-out and setting: the value for `C=CCN1CC(=O)N2[C@@H](Cc3ccc(O)cc3)C(=O)N(Cc3cccc4c(-c5ccc(NC(=O)NC6CCCCC6)nc5)cn(C)c34)C[C@@H]2N1C(=O)NCc1ccccc1` [Compound D-92] was 19 nM; that for `C=CCN1CC(=O)N2C(Cc3ccc(O)cc3)C(=O)N(Cc3cccc4c(C(=O)Nc5ccc(NCC)nc5)cn(C)c34)CC2N1C(=O)NCc1ccccc1` (stereo not drawn) [Compound G-16] was 1.7 nM; that for `C=CCN1CC(=O)N2[C@@H](Cc3ccc(O)cc3)C(=O)N(Cc3cccc4c(C(=O)N5CCN6CCN(CC7CCCCC7)CC6C5)cn(C)c34)C[C@@H]2N1C(=O)NCc1ccccc1` (stereo partly drawn) [Compound E-46] was 2 nM.
Same read-out and setting: the value for `C=CCN1CC(=O)N2[C@@H](Cc3ccc(O)cc3)C(=O)N(Cc3cccc4c(-c5ccc(NC(=O)CCCNCC(N)=O)cc5)cn(C)c34)C[C@@H]2N1C(=O)NCc1ccccc1` [Compound D-71] was 1.9 nM; that for `C=CCN1CC(=O)N2C(CN(Cc3cccc4c(C(=O)Nc5ccc(N(C)C)cc5)cn(C)c34)C(=O)[C@@H]2Cc2ccc(O)cc2)N1C(=O)NCc1ccccc1` (stereo partly drawn) [Compound G-14] was 1.2 nM.
As to `C=CCN1CC(=O)N2[C@@H](Cc3ccc(O)cc3)C(=O)N(Cc3cccc4c(-c5ccc(NC(=O)N6CCN(C)CC6)nc5)cn(C)c34)C[C@@H]2N1C(=O)NCc1ccccc1` [Compound D-87], the concentration for 50% growth inhibition (GI50) (Homo sapiens, MV4-11, 72 h) turned out to be 1.3 nM.
On the same count and under the same terms, the value for `C=CCN1CC(=O)N2[C@@H](Cc3ccc(O)cc3)C(=O)N(Cc3cccc4c(-c5ccc(C(=O)NNCC(F)(F)F)cc5)cn(C)c34)C[C@@H]2N1C(=O)NCc1ccccc1` [Compound D-37] was 1.3 nM; that for `C=CCN1CC(=O)N2[C@@H](Cc3ccc(O)cc3)C(=O)N(Cc3cccc4c(-c5cccc(C(=O)NC6CCCCC6)c5)cn(C)c34)C[C@@H]2N1C(=O)NCc1ccccc1` [Compound D-9] was 3.3 nM; that for `C=CCN1CC(=O)N2[C@@H](Cc3ccc(O)cc3)C(=O)N(Cc3cccc4c(-c5ccc(C(=O)NC6CCN(C)CC6)o5)cn(C)c34)C[C@@H]2N1C(=O)NCc1ccccc1` [Compound D-103] was 10.8 nM.
As to `C=CCN1CC(=O)N2[C@@H](Cc3ccc(O)cc3)C(=O)N(Cc3cccc4c(C(=O)N5CCN(Cc6ccccn6)CC5)cn(C)c34)C[C@@H]2N1C(=O)NCc1ccccc1` [Compound E-29], under setting [1], the GI50 amounted to 18.4 nM.
On to `C=CCN1CC(=O)N2[C@@H](Cc3ccc(O)cc3)C(=O)N(Cc3cccc4c(-c5ccc(NC(=O)C6CCN(C(C)=O)CC6)cc5)cn(C)c34)C[C@@H]2N1C(=O)NCc1ccccc1` [Compound D-61], for which it took 1.3 nM to inhibit growth (Homo sapiens, MV4-11, 72 h) by half (GI50).
Consider `C=CCN1CC(=O)N2[C@@H](Cc3ccc(O)cc3)C(=O)N(Cc3cccc4c(C(=O)N5CCN(c6ccccc6)CC5)cn(C)c34)C[C@@H]2N1C(=O)NCc1ccccc1` [Compound E-37], for which halving of growth (Homo sapiens, MV4-11, 72 h) (GI50) required 16.4 nM.
Consider `C=CCN1CC(=O)N2[C@@H](Cc3ccc(O)cc3)C(=O)N(Cc3cccc4c(-c5ccc(C(=O)NC)o5)cn(C)c34)C[C@@H]2N1C(=O)NCc1ccccc1` [Compound D-101], for which, for the setting “Homo sapiens, MV4-11, 72 h”, the GI50 amounted to 5.8 nM.
The same measure, in the same setting: under `C=CCN1CC(=O)N2C(CN(Cc3cccc4c(C(=O)Nc5ccc(N)cc5)cn(C)c34)C(=O)[C@@H]2Cc2ccc(O)cc2)N1C(=O)NCc1ccccc1` (stereo partly drawn) [Compound G-8] stands 7.4 nM; under `C=CCN1CC(=O)N2[C@@H](Cc3ccc(O)cc3)C(=O)N(Cc3cccc4c(-c5ccc(NC(=O)c6ccc(-n7ccnc7)nc6)cc5)cn(C)c34)C[C@@H]2N1C(=O)NCc1ccccc1` [Compound D-68], 1.4 nM.
Take `C=CCN1CC(=O)N2[C@@H](Cc3ccc(O)cc3)C(=O)N(Cc3cccc4c(C(=O)N5CCN(Cc6ccc(C#N)cc6)CC5)cn(C)c34)C[C@@H]2N1C(=O)NCc1ccccc1` [Compound E-33]: halving of growth (Homo sapiens, MV4-11, 72 h) (GI50) required 9 nM.
For the molecule `C=CCN1CC(=O)N2[C@@H](Cc3ccc(O)cc3)C(=O)N(Cc3cccc4c(-c5ccc(C(=O)NNCc6ccccc6)cc5)cn(C)c34)C[C@@H]2N1C(=O)NCc1ccccc1` [Compound D-38], the GI50 (Homo sapiens, MV4-11, 72 h) came out at 3.2 nM.
`C=CCN1CC(=O)N2[C@@H](Cc3ccc(O)cc3)C(=O)N(Cc3cccc4c(C(=O)NCc5cccc(N6CCCC6)n5)cn(C)c34)C[C@@H]2N1C(=O)NCc1ccccc1` [Compound F-49] returned a GI50 (Homo sapiens, MV4-11, 72 h) of 11.4 nM.
The same measure, in the same setting: under `C=CCN1CC(=O)N2[C@@H](Cc3ccc(O)cc3)C(=O)N(Cc3cccc4c(C(=O)N5CCN(Cc6ccccc6)CC5)cn(C)c34)C[C@@H]2N1C(=O)NCc1ccccc1` [Compound E-26] stands 2.3 nM.
As to `C=CCN1CC(=O)N2[C@@H](Cc3ccc(O)cc3)C(=O)N(Cc3cccc4c(C(=O)N5CCN(Cc6ccccn6)CC5)cn(C)c34)C[C@@H]2N1C(=O)NCc1ccccc1` [Compound E-28], under setting [1], the concentration for 50% growth inhibition (GI50) was 5.6 nM.
For the setting “Homo sapiens, MV4-11, 72 h”, `C=CCN1CC(=O)N2[C@@H](Cc3ccc(O)cc3)C(=O)N(Cc3cccc4c(-c5ccc(C(=O)NN6CCOCC6)cc5)cn(C)c34)C[C@@H]2N1C(=O)NCc1ccccc1` [Compound D-43] had a GI50 of 1.2 nM.
The same measure, in the same setting: the value for `C=CCN1CC(=O)N2[C@@H](Cc3ccc(O)cc3)C(=O)N(Cc3cccc4c(-c5ccc(NC(=O)c6ccc(CN(C)C)cc6)cc5)cn(C)c34)C[C@@H]2N1C(=O)NCc1ccccc1` [Compound D-54] was 1.2 nM.
Consider `C=CCN1CC(=O)N2[C@@H](Cc3ccc(O)cc3)C(=O)N(Cc3cccc4c(C(=O)N(C)Cc5ccncc5)cn(C)c34)C[C@@H]2N1C(=O)NCc1ccccc1` [Compound F-40], for which the GI50 (Homo sapiens, MV4-11, 72 h) amounted to 17.2 nM.
The molecule `C=CCN1CC(=O)N2[C@@H](Cc3ccc(O)cc3)C(=O)N(Cc3cccc4c(-c5ccc(NC(=O)C6CCN(C(C)=O)CC6)nc5)cn(C)c34)C[C@@H]2N1C(=O)NCc1ccccc1` [Compound D-89] came in with a GI50 (Homo sapiens, MV4-11, 72 h) of 1.3 nM.
Same read-out and setting: the value for `C=CCN1CC(=O)N2C(CN(Cc3cccc4c(C(=O)Nc5ccc(N6CCC(N7CCOCC7)CC6)nc5)cn(C)c34)C(=O)[C@@H]2Cc2ccc(O)cc2)N1C(=O)NCc1ccccc1` (stereo partly drawn) [Compound G-56] was 1.3 nM; that for `C=CCN1CC(=O)N2[C@@H](Cc3ccc(O)cc3)C(=O)N(Cc3cccc4c(C(=O)N(C)CCCc5c(C)nn(C)c5C)cn(C)c34)C[C@@H]2N1C(=O)NCc1ccccc1` [Compound F-38] was 6.1 nM.
Same read-out and setting: the value for `C=CCN1CC(=O)N2[C@@H](Cc3ccc(O)cc3)C(=O)N(Cc3cccc4c(-c5ccc(C(=O)Nc6ccc(CN)cc6)cc5)cn(C)c34)C[C@@H]2N1C(=O)NCc1ccccc1` [Compound D-19] was 2 nM; that for `C=CCN1CC(=O)N2[C@@H](Cc3ccc(O)cc3)C(=O)N(Cc3cccc4c(-c5ccc(NC(=O)C6CCN(C)CC6)cc5)cn(C)c34)C[C@@H]2N1C(=O)NCc1ccccc1` [Compound D-62] was 1.3 nM.
